Two molecules from patent US7276522B2, “4-(substituted cycloalkylmethyl) imidazole-2-thiones, 4-(substituted cycloalkenylmethyl) imidazole-2-thiones, 4-(substituted cycloalkylmethyl) imidazol-2-ones, 4-(substituted cycloalkenylmethyl) imidazol-2-ones and related compounds” (Allergan, Inc., priority 2002, dated 2007) can be followed below.

Each structure is given as a SMILES string.

Assay [1] addresses T1, alpha2A adrenergic receptor (Homo sapiens, UniProt P08913).
T1 sequence (P08913 1-465): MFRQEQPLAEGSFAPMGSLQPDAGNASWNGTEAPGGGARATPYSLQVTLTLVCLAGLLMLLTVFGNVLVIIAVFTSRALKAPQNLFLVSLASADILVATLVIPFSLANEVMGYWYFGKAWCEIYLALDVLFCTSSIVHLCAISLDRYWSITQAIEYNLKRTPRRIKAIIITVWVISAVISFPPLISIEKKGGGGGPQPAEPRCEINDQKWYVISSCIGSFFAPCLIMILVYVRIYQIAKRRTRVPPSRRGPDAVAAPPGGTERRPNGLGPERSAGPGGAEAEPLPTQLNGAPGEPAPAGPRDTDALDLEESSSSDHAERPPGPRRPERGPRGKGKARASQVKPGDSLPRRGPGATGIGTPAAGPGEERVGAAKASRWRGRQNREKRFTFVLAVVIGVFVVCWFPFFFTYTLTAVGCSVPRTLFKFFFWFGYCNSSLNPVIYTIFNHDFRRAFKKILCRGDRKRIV
Nature of the assay: Receptor Selection and Amplification Technology (RSAT) assay, alpha2A. The following applies: NIH-3T3 cells, agonism, read-out: EC50, Alpha 2A. The class given is cell-based. The source says: (§1) The imidazole-2-thione compounds of the invention are agonists of alpha2 adrenergic receptors, particularly they tend to be specific or selective agonists of alpha2B and/or to a lesser extent alpha2C adrenergic receptors, in preference over alpha2A adrenergic receptors. […] Al., 1995, Pharmacol. Toxicol. 76, pp. 308-311 (incorporated herein by reference) and is also described below. Another reference pertinent to this assay is Conklin et al. (1993) Nature 363:274-6, also incorporated herein by reference.
(§2) Receptor Selection and Amplification Technology (RSAT) Assay
(§3) The RSAT assay measures a receptor-mediated loss of contact inhibition that results in selective proliferation of receptor-containing cells in a mixed population of confluent cells. The increase in cell number is assessed with an appropriate transfected marker gene such as β-galactosidase, the activity of which can be easily measured in a 96-well format. […]
(§4) NIH-3T3 cells are plated at a density of 2×10^6 cells in 15 cm dishes and maintained in Dulbecco's modified Eagle's medium supplemented with 10% calf serum. […] After washing with phosphate-buffered saline, β-galactosidase enzyme activity is determined by adding 200 μl of the chromogenic substrate (consisting of 3.5 mM o-nitrophenyl-β-D-galactopyranoside and 0.5% nonidet P-40 in phosphate buffered saline), incubating overnight at 30° C. and measuring optical density at 420 nm. […]

Assay [2] addresses T2, alpha2B adrenergic receptor (Homo sapiens, UniProt P18089).
T2 construct: expressed in transfected cells; host or cells: NIH-3T3
T2 sequence (P18089 1-450): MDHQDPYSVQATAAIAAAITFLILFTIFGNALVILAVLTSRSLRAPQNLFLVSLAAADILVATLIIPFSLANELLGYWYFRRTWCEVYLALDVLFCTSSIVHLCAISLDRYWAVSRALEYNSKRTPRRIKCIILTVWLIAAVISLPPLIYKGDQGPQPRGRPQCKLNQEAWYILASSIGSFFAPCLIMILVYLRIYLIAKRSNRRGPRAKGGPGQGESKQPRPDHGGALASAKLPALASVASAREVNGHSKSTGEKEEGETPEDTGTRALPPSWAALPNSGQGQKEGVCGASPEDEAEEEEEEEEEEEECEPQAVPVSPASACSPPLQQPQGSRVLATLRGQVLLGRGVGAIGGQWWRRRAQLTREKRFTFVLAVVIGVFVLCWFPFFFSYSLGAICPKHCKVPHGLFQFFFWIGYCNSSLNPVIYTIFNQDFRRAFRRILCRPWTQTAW
Briefly: Receptor Selection and Amplification Technology (RSAT) assay, alpha2B. The following applies: for EC50: RSAT, NIH-3T3 cells, agonism, read-out: EC50, Alpha 2B; for Emax: fraction of maximal effect of standard agonist brimonidine, read-out: intrinsic activity, Alpha 2B. The format is cell-based.
Source text: as §1, §2
The RSAT assay measures a receptor-mediated loss of contact inhibition that results in selective proliferation of receptor-containing cells in a mixed population of confluent cells. The increase in cell number is assessed with an appropriate transfected marker gene such as β-galactosidase, the activity of which can be easily measured in a 96-well format. Receptors that activate the G protein, Gq, elicit this response. Alpha2 receptors, which normally couple to Gi, activate the RSAT response when coexpressed with a hybrid Gq protein that has a Gi receptor recognition domain, called Gq/i5.
NIH-3T3 cells are plated at a density of 2×10^6 cells in 15 cm dishes and maintained in Dulbecco's modified Eagle's medium supplemented with 10% calf serum. One day later, cells are cotransfected by calcium phosphate precipitation with mammalian expression plasmids encoding p-SV-β-galactosidase (5-10 μg), receptor (1-2 μg) and G protein (1-2 μg). 40 μg salmon sperm DNA may also be included in the transfection mixture. Fresh media is added on the following day and 1-2 days later, cells are harvested and frozen in 50 assay aliquots. Cells are thawed and 100 μl added to 100 μl aliquots of various concentrations of drugs in triplicate in 96-well dishes. Incubations continue 72-96 hr at 37° C. After washing with phosphate-buffered saline, β-galactosidase enzyme activity is determined by adding 200 μl of the chromogenic substrate (consisting of 3.5 mM o-nitrophenyl-β-D-galactopyranoside and 0.5% nonidet P-40 in phosphate buffered saline), incubating overnight at 30° C. and measuring optical density at 420 nm. The absorbance is a measure of enzyme activity, which depends on cell number and reflects a receptor-mediated cell proliferation. The EC50 and maximal effect of each drug at each alpha2 receptor is determined. The efficacy or intrinsic activity is calculated as a ratio of the maximal effect of the drug to the maximal effect of a standard full agonist for each receptor subtype. Brimonidine, also called UK14304, the chemical structure of which is shown below, is used as the standard agonist for the alpha2A, alpha2B and alpha2C receptors. […]

Assay [3] concerns the target T3, alpha2C adrenergic receptor (Homo sapiens, UniProt P18825).
T3 construct: expressed in transfected cells; host or cells: NIH-3T3
T3 sequence (P18825 1-462): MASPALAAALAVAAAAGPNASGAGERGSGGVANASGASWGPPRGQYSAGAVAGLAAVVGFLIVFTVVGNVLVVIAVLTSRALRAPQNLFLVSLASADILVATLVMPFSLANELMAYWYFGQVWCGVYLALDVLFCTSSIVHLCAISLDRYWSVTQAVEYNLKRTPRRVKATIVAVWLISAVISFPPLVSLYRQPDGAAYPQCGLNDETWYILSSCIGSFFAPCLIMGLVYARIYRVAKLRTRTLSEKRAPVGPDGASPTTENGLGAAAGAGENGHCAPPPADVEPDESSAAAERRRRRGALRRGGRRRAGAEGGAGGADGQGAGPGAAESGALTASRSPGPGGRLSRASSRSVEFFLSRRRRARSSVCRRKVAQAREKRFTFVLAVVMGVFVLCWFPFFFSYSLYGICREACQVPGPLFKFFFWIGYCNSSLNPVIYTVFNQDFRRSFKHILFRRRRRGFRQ
Nature of the assay: Receptor Selection and Amplification Technology (RSAT) assay, alpha2C. The format is cell-based. The following applies: NIH-3T3 cells, agonism, read-out: EC50, Alpha 2C.
Source text: as §1, §2, §3, §4

Assay [4] concerns rats with surgical ligation of L5 and L6 spinal nerves (tactile allodynia). Briefly: Chung model of neuropathic pain (tactile allodynia, von Frey hairs). The following applies: 30 min after dosing. The class given is in vivo, rat. The source says:
Alleviation of Chronic Pain
A model in accordance with Kim and Chung 1992, Pain […], pp 355-363 (Chung model), for chronic pain (in particular peripheral neuropathy) involves the surgical ligation of the L5 (and optionally the L6) spinal nerves on one side in experimental animals. Rats recovering from the surgery gain weight and display a level of general activity similar to that of normal rats. However, these rats develop abnormalities of the foot, wherein the hindpaw is moderately everted and the toes are held together. More importantly, the hindpaw on the side affected by the surgery appears to become sensitive to pain from low-threshold mechanical stimuli, such as that producing a faint sensation of touch in a human, within about 1 week following surgery. This sensitivity to normally non-painful touch is called “tactile allodynia” and lasts for at least two months. The response includes lifting the affected hindpaw to escape from the stimulus, licking the paw and holding it in the air for many seconds. None of these responses is normally seen in the control group.
Rats are anesthetized before surgery. The surgical site is shaved and prepared either with betadine or Novacaine. Incision is made from the thoracic vertebra X111 down toward the sacrum. Muscle tissue is separated from the spinal vertebra (left side) at the L4-S2 levels. The L6 vertebra is located and the transverse process is carefully removed with a small rongeur to expose the L4-L6 spinal nerves. The L5 and L6 spinal nerves are isolated and tightly ligated with 6-0 silk thread. The same procedure is done on the right side as a control, except no ligation of the spinal nerves is performed.
A complete hemostasis is confirmed, then the wounds are sutured. A small amount of antibiotic ointment is applied to the incised area, and the rat is transferred to the recovery plastic cage under a regulated heat-temperature lamp. On the day of the experiment, at least seven days after the surgery, typically six rats per test group are administered the test drugs by intraperitoneal (i.p.) injection or oral gavage. For i.p. injection, the compounds are formulated in approximately 10 to 50% DMSO and given in a volume of 1 ml/kg body weight.
Tactile allodynia is measured prior to and 30 minutes after drug administration using von Frey hairs that are a series of fine hairs with incremental differences in stiffness. Rats are placed in a plastic cage with a wire mesh bottom and allowed to acclimate for approximately 30 minutes. The von Frey hairs are applied perpendicularly through the mesh to the mid-plantar region of the rats' hindpaw with sufficient force to cause slight buckling and held for 6-8 seconds. The applied force has been calculated to range from 0.41 to 15.1 grams. If the paw is sharply withdrawn, it is considered a positive response. A normal animal will not respond to stimuli in this range, but a surgically ligated paw will be withdrawn in response to a 1-2 gram hair. The 50% paw withdrawal threshold is determined using the method of Dixon, W. J., Ann. Rev. Pharmacol. Toxicol. 20:441-462 (1980). The post-drug threshold is compared to the pre-drug threshold and the percent reversal of tactile sensitivity is calculated based on a normal threshold of 15.1 grams. The results are expressed in percent (%) MPE, where the MPE value reflects the percentage reversal of pain threshold to that of a normal animal (100%). Table 3 below indicates results of this test with Compounds 1, 7 and 29 of the invention, administered i.p. and in oral doses.

Regarding `Cc1ccc2c(n1)CC(Cc1c[nH]c(=S)[nH]1)CC2` (racemic) [Compound 201, 4-(2-methyl-5,6,7,8-tetrahydro-quinolin-7-ylmethyl)-1,3-dihydro-imidazole-2-thione], the results for the EC50 in assay [1], in assay [2] and in assay [3] were > 10 µM, 113 nM and > 10 µM, respectively. For the same molecule, the Emax in assay [2] was 104%. Also, the “% Pain Reversal ± SEM” value in assay [4] (10 μg/kg i.p.) came out at 0.65 ± 0.91%; in assay [4] (30 μg/kg i.p.), 42 ± 5.7%; in assay [4] (100 μg/kg i.p.) it was 75.1 ± 5.7%; in assay [4] (100 μg/kg p.o.), 64 ± 7%; in assay [4] (300 μg/kg i.p.), 82.5 ± 7.4%.

Take `Cc1ccc2c(n1)CC(Cc1c[nH]c(=S)[nH]1)CC2` (single isomer, unassigned) [Compound 202, 4-(2-methyl-5,6,7,8-tetrahydro-quinolin-7-ylmethyl)-1,3-dihydro-imidazole-2-thione]: the figures for the EC50 in assay [1], in assay [2] and in assay [3] were > 10 µM, 92 nM and > 10 µM, respectively. Also, in assay [2], the Emax amounted to 99%. Besides, the “% Pain Reversal ± SEM” value in assay [4] (30 μg/kg p.o.) was 28 ± 8.5%; in assay [4] (100 μg/kg p.o.), 49 ± 7.2%; in assay [4] (300 μg/kg p.o.), 75 ± 8.1%.
